This note sets out measurements from PMC4706877, “Antibacterial and Cytotoxic Activity of Compounds Isolated from Flourensia oolepis” (Evidence-based Complementary and Alternative Medicine : eCAM, 2015).

≈ marks a conversion by molar mass, not a printed value. Where a name gives a salt, the structure may show the parent alone. Read-outs that look alike come from different tables or passages of the source.

The subject of assay [1] is Lucena 1 cells (MDR, P-glycoprotein overexpressing). The assay is described as follows: cells. The assay is classed as cell-based, human. Conditions: for IC50: Homo sapiens, Lucena 1, 72 h, Lucena 1, MTT, 72 h, read-out: IC50 values and 95% confidence limits (lower, upper). The procedure: (§1) The HEK293T non-tumor derived cell line and human isolated mononuclear cells (PBMC) were also tested. […] Cells were cultured at 37°C in a 5% CO2 humidified environment.
(§2) The latter concentration was then used for maintenance of the cells. Lucena 1 were continuously cultured in the presence of 60 nM DOX. Both cell lines were grown in drug-free medium 3-4 days before the experiments. Overexpression of P-glycoprotein (P-gp) in both MDR variants was verified by flow cytometry using FITC-labeled mouse anti-human P-gp (BD Pharmingen, USA). Cells were subcultured twice a week from frozen stocks and used before the 20th passage. All experiments were performed with cells in the logarithmic growth phase with cell viabilities over 90%, determined by trypan blue staining.
(§3) To investigate the cytotoxic potential of the isolated compounds, the MTT colorimetric assay was performed. […] The compounds were evaluated at a final maximum concentration of 100 μM. After 72 hours, 20 μL of 5 mg/mL solution of MTT in sterile PBS was added to each well and further incubated for 4 h. Then, the supernatants were removed and replaced with 100 μL DMSO to solubilize the resulting purple formazan crystals produced from metabolically viable cells. Absorbance was measured with an iMark micro-plate reader (Bio-Rad, USA) at 595 nm. Two wells were used for each concentration of the products assayed and three independent experiments were performed. […] The percentage of cytotoxic activity of the assayed compounds was determined by the following formula: cytotoxicity (%) = [1 − (optical density of treated cells − optical density DMSO)/(optical density of ethanol control cells − optical density DMSO)] × 100.
(§4) Data were analyzed by one-way analysis of variance (ANOVA) and means were compared using Bonferroni's comparison test, with p ≤ 0.05 considered as statistically significant.

Assay [2] deals with CEM/ADR5000 cells (MDR, P-glycoprotein overexpressing). The assay is described as follows: cells. Conditions: for IC50: Homo sapiens, ADR5000, 72 h, CEM/ADR5000, MTT, 72 h, read-out: IC50 values and 95% confidence limits (lower, upper). The assay is classed as cell-based, human. How it is done: as §1, §2, §3, §4
The subject of assay [3] is tetracycline, erythromycin, and polymyxin-resistant Proteus mirabilis (Pr2921). The assay is described as follows: Agar dilution MIC / MBC. It is filed as cell-based. Conditions: P. mirabilis; for MIC: agar dilution, 24 h; for MBC: value in parentheses. How it is done:
(§5) This isolate was identified by conventional biochemical assays and by the commercial system API20E (bioMérieux SA, Mercy L'Etoile, France). Antimicrobial resistances were determined by disk diffusion susceptibility testing (Kirby-Bauer Method) according to CLSI [15]. Bacterial suspensions were prepared on sterile saline from each organism grown overnight. Turbidity was spectrophotometrically adjusted to the McFarland 0.5 standard. Dilutions were carried out with sterile saline to give an adjusted concentration of 1.5 × 10^7 colony-forming units/mL.
(§6) Three independent experiments were carried out. […] For reading, visual observations were carried out.
For orientation: In agar dilution the substance is mixed into plates at graded concentrations.

The test system of assay [4] is Pseudomonas aeruginosa (ATCC 27853). The assay is described as follows: Agar dilution MIC / MBC. The assay is classed as cell-based. To be noted: ATCC27853, P. aeruginosa; for MIC: agar dilution, 24 h; for MBC: value in parentheses. The procedure: as §5, §6
Assay [5] relates to Staphylococcus aureus subsp. aureus (ATCC 6538). The assay is described as follows: Agar dilution MIC / MBC. It is filed as cell-based. Conditions: Staphylococcus aureus, ATCC6538, S. aureus; for MIC: agar dilution, 24 h; for MBC: value in parentheses, read-out: MBC. How it is done: as §5, §6
Assay [6] concerns Escherichia coli (ATCC 25922). The assay is described as follows: Agar dilution MIC / MBC. The assay is classed as cell-based. To be noted: ATCC25922, E. coli; for MIC: agar dilution, 24 h; for MBC: value in parentheses. The procedure: as §5, §6
The subject of assay [7] is Enterococcus faecalis (ATCC 29212). The assay is described as follows: Agar dilution MIC / MBC. To be noted: ATCC29212, E. faecalis; for MIC: agar dilution, 24 h; for MBC: value in parentheses. It is filed as cell-based. How it is done: as §5, §6
The test system of assay [8] is K562 chronic myeloid leukemia cells. The assay is described as follows: MTT cell proliferation assay. It is filed as cell-based, human. Conditions: Homo sapiens, K562, MTT, 72 h, read-out: IC50 values and 95% confidence limits (lower, upper). The procedure: as §1, §3, §4
A general note: Tetrazolium dyes change colour on reduction, which living cells bring about.

Assay [9] deals with CCRF-CEM acute lymphoblastic leukemia cells. The assay is described as follows: MTT cell proliferation assay. It is filed as cell-based, human. How it is done:
as §1, §3, §4

Assay [10] relates to bacteria. The assay is described as follows: Antibacterial test of fractions during bioguided isolation. To be noted: at 2 mg/mL.
Protocol: MICs were determined by the agar dilution test according to CLSI [15] with some modifications [7]. Briefly, the plate count agar medium (PCA, Oxoid Ltd, UK) was added in duplicate to the suitable amount of fraction or pure compound previously dissolved in ethanol. […] After solidification of the agar in 6-well plates (Greiner Bio-One, Germany), 2 μL of each bacterial suspension was placed on the agar surface. Three independent experiments were carried out. […] For reading, visual observations were carried out. Nitro blue tetrazolium (NBT, Sigma-Aldrich CO, USA) solution in saline phosphate buffer (PBS) was applied on one spot for confirmation. Plates containing only the culture medium, with or without the addition of the dissolution solvent, were used as controls. Positive controls with commercial gentamicin sulfate or erythromycin dissolved in sterile water or ethanol, respectively, were simultaneously carried out.
The bactericidal effect was further studied from each concentration of product showing growth inhibition. […] At the end of this period, the minimum bactericidal concentration (MBC) values, defined as the lowest concentration with absence of turbidity, were recorded.
Setting [11] is: Homo sapiens; CCRF-CEM; MTT, 72 h; read-out: IC50 values and 95% confidence limits (lower, upper).

For orientation: IC50 means the concentration that inhibits the measured activity by half. What is called MIC is the lowest concentration found to suppress growth. Read a high MIC as weaker potency. Broadly, the MBC is the smallest concentration meeting the test's criterion for killing. For the molecule `O=C(/C=C/c1ccc(O)cc1)c1ccc(O)cc1O` [Compound 2, isoliquiritigenin], the IC50 in [1] is more than 100 µM; in assay [2], 51.9 µM; in assay [8], more than 100 µM; in assay [9] (setting [11]), 58.1 µM. Moreover, the MIC in assay [3] was more than 500 µg/mL; in assay [4], more than 500 µg/mL; in [5], 250 µg/mL (≈ 976 µM); in assay [6] it was more than 500 µg/mL; in [7], 500 µg/mL (≈ 1950 µM). The MBC in [3] was more than 500 µg/mL; in [4] it was more than 500 µg/mL; in [5], 500 µg/mL (≈ 1950 µM); in assay [6], more than 500 µg/mL; in assay [7], more than 500 µg/mL.

With `O=C1C[C@@H](c2ccccc2)Oc2cc(O)cc(O)c21` [Compound 3, pinocembrin], the half-maximal inhibitory concentration (IC50) in [1] is more than 100 µM; in assay [2], 53.5 µM; in assay [8], more than 100 µM; in assay [9] (setting [11]) it was 58.9 µM. For the same molecule, the MIC in assay [3] is more than 500 µg/mL; in assay [4] it was more than 500 µg/mL; in [5], 15 µg/mL (≈ 58.5 µM); in assay [6], 500 µg/mL (≈ 1950 µM); in [7] it was 62 µg/mL (≈ 242 µM). The MBC in assay [3] was more than 500 µg/mL; in [4], more than 500 µg/mL; in [5], 62 µg/mL (≈ 242 µM); in assay [6], 500 µg/mL (≈ 1950 µM); in [7] it was 125 µg/mL (≈ 488 µM). The bactericidal activity result in assay [10] is “bactericidal effects”.

On to `COc1cc(C2CC(=O)c3ccc(O)cc3O2)ccc1O` (stereo not drawn) [Compound 5, 7,4′-dihydroxy-3′-methoxyflavanone], for which the IC50 in assay [1] is more than 100 µM; in assay [2], 30.4 µM; in assay [8] it was more than 100 µM; in assay [9] (setting [11]) it was 24.8 µM. Moreover, the MIC in [3] was more than 500 µg/mL; in [4], more than 500 µg/mL; in assay [5], 250 µg/mL (≈ 873 µM); in assay [6], more than 500 µg/mL; in assay [7], 500 µg/mL (≈ 1750 µM). Moreover, the MBC in assay [3], in assay [4], in assay [5], in assay [6] and in assay [7] was more than 500 µg/mL in each case.

In the case of `COc1cccc2c1C(=O)c1c(O)c3c(c(O)c1C2=O)C[C@@](O)(C(=O)CO)C[C@@H]3O[C@H]1C[C@H](N)[C@H](O)[C@H](C)O1` [Doxorubicin, Doxorubicin hydrochloride, reference compound], the “resistant index (RI) = IC50 resistant cells/IC50 sensitive cells” value in assay [1] is not below 16.8; in assay [2] (CEM/ADR5000 vs CCRF-CEM) it was not below 518.8. For the same molecule, the IC50 in assay [1] was more than 69 µM; in [2] it was more than 69 µM; in assay [8] (K562, 72 h), 4.1 µM; in [9] (Homo sapiens, CCRF-CEM, 72 h, CCRF-CEM; MTT, 72 h; read-out: IC50 values and 95% confidence limits (lower, upper)), 0.133 µM.

Take `CC[C@H]1OC(=O)[C@H](C)[C@@H](O[C@H]2C[C@@](C)(OC)[C@@H](O)[C@H](C)O2)[C@H](C)[C@@H](O[C@@H]2O[C@H](C)C[C@H](N(C)C)[C@H]2O)[C@](C)(O)C[C@@H](C)C(=O)[C@H](C)[C@@H](O)[C@]1(C)O` [Erythromycin, erythromycin, reference compound]: the MIC in assay [3] worked out at 500 µg/mL (≈ 681 µM); in [4] it was 62 µg/mL (≈ 84.5 µM); in assay [5] it was 1 µg/mL (≈ 1.36 µM); in [6], 125 µg/mL (≈ 170 µM); in [7], 1 µg/mL (≈ 1.36 µM). The minimal bactericidal concentration (MBC) in assay [3] is more than 500 µg/mL; in assay [4] it was 500 µg/mL (≈ 681 µM); in assay [5], 60 µg/mL (≈ 81.8 µM); in [6], more than 500 µg/mL; in assay [7], 30 µg/mL (≈ 40.9 µM).

For the molecule `CNC(C)C1CCC(N)C(OC2C(N)CC(N)C(OC3OCC(C)(O)C(NC)C3O)C2O)O1` (stereo not drawn) [Gentamicin, Gentamicin sulfate, reference compound], the MIC came to 10 µg/mL in assay [3]; 4 µg/mL in assay [4]; 8 µg/mL in [5]; 4 µg/mL in assay [6]; 8 µg/mL in [7]. Besides, the MBC amounted to 10 µg/mL in [3]; 4 µg/mL in [4]; 10 µg/mL in [5]; 8 µg/mL in assay [6]; 10 µg/mL in assay [7].
